Assay results reported in US11702422B2, “Imidazopyridazines as modulators of IL-17” (Janssen Pharmaceutica NV, priority 2020, dated 2023).

Assays:
[1] = biological target: IL-17A(FLAG-Tagged): IL-17RA(His-Tagged) (Homo sapiens, UniProt Q16552, K93Q); assay: IL-17A(FLAG-Tagged): IL-17RA(His-Tagged) Binding Disruption Eu-HTRF Assay; conditions: IL-17A/IL-17RA binding disruption, simple average if tested more than once
In short: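 IC50 comes from a one-site competition fit of the HTRF 665/620 nm ratio. Compound dilutions (2-fold, 22 points) were held 1 h rt with FLAG-tagged IL-17A dimer, then His-tagged IL-17RA plus Eu-cryptate anti-FLAG and D2 anti-His antibodies were added for 2 h rt.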

[2] = tested on: IL-17A-induced G-CSF production in human normal keratinocyte (NHK); assay: NHK Assay: IL-17A-induced G-CSF production in human normal keratinocytes; type: cell-based; conditions: adult normal human keratinocytes, IL-17A 5 ng/mL, 24 h, simple average if tested more than once
In short: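 Inhibition of IL-17A-driven G-CSF release is measured in adult keratinocytes stimulated for 24 h at 37° C with 5 ng/mL human IL-17A that had been pre-incubated with compound for 1 h. IC50 comes from HTRF G-CSF levels; cell viability is checked in parallel by luminescent ATP assay.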

Chain of UniProt Q16552 (Q16552 with tags, fused parts or gaps K93Q): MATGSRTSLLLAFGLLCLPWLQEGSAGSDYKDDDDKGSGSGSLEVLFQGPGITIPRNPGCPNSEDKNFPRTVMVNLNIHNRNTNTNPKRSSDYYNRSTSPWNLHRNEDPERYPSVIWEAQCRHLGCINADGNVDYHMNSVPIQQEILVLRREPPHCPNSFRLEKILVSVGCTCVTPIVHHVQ

SMILES	IC50 [1]	IC50 [2]	IC50 ([2]; Homo sapiens, Keratinocyte)
Cc1c(C(=O)N[C@H](c2cn3ncc(C(NC(=O)CC4CC(F)(F)C4)C4CC4)cc3n2)C2CCC(F)(F)CC2)cnn1CCC(F)(F)F (single isomer, unassigned) [Example 52, N—((S)-(7-((R*)-Cyclopropyl(2-(3,3-difluorocyclobutyl)acetamido)methyl)imidazo[1,2-b]pyridazin-2-yl)(4,4-difluorocyclohexyl)methyl)-5-methyl-1-(3,3,3-trifluoropropyl)-1H-pyrazole-4-carboxamide]	280 nM	670 nM	
COCc1cncc(C(=O)N[C@H](c2cn3ncc([C@H](NC(=O)CCC(F)(F)F)C4CC4)cc3n2)C2CCC(F)(F)CC2)c1 [Example 462, N—((S)-(7-((R)-Cyclopropyl(4,4,4-trifluorobutanamido)methyl)imidazo[1,2-b]pyridazin-2-yl)(4,4-difluorocyclohexyl)methyl)-5-(methoxymethyl)nicotinamide]	140 nM		1100 nM
O=C(CC1CC(F)(F)C1)NC(c1cnn2cc([C@@H](NC(=O)c3nonc3C3CC3)C3CCC(F)(F)CC3)nc2c1)C(F)(F)F (single isomer, unassigned) [Example 421, 4-Cyclopropyl-N—((S)-(7-((S*)-1-(2-(3,3-difluorocyclobutyl)acetamido)-2,2,2-trifluoroethyl)imidazo[1,2-b]pyridazin-2-yl)(4,4-difluorocyclohexyl)methyl)-1,2,5-oxadiazole-3-carboxamide]	98 nM		43 nM
O=C(CCC(F)(F)F)N[C@@H](c1cnn2cc([C@@H](NC(=O)c3cnn(CC4CC(F)(F)C4(F)F)n3)C3CCC(F)(F)CC3)nc2c1)C1CC1 (stereo partly drawn) [Example 95, N—((S)-(7-((R)-Cyclopropyl(4,4,4-trifluorobutanamido)methyl)imidazo[1,2-b]pyridazin-2-yl)(4,4-difluorocyclohexyl)methyl)-2-((2,2,3,3-tetrafluorocyclobutyl)methyl)-2H-1,2,3-triazole-4-carboxamide]	100 nM		260 nM
CCc1oncc1C(=O)N[C@H](c1cn2ncc([C@H](NC(=O)CCC(F)(F)F)C3CC3)cc2n1)C1CCC(F)(F)CC1 [Example 88, N—((S)-(7-((R)-Cyclopropyl(4,4,4-trifluorobutanamido)methyl)imidazo[1,2-b]pyridazin-2-yl)(4,4-difluorocyclohexyl)methyl)-5-ethylisoxazole-4-carboxamide]	56 nM		110 nM

Now from value to molecule, other results behind:

IC50 [1]	SMILES	IC50 [2]	IC50 ([2]; Homo sapiens, Keratinocyte)
640 nM	Cc1nonc1C(=O)N[C@H](c1cn2ncc([C@H](NC(=O)CCCF)C3CC3)cc2n1)C1CCC(F)(F)CC1 [Example 252, N—((S)-(7-((R)-Cyclopropyl(4-fluorobutanamido)methyl)imidazo[1,2-b]pyridazin-2-yl)(4,4-difluorocyclohexyl)methyl)-4-methyl-1,2,5-oxadiazole-3-carboxamide]		7700 nM
370 nM	Cc1nonc1C(=O)N[C@H](c1cn2ncc([C@H](NC(=O)CC(C)(C)C(F)F)C3CC3)cc2n1)C1CCC(F)(F)CC1 [Example 312, N—((S)-(7-((R)-Cyclopropyl(4,4-difluoro-3,3-dimethylbutanamido)methyl)imidazo[1,2-b]pyridazin-2-yl)(4,4-difluorocyclohexyl)methyl)-4-methyl-1,2,5-oxadiazole-3-carboxamide]		3200 nM
24 nM	Cc1nonc1C(=O)N[C@H](c1cn2ncc([C@H](NC(=O)CC34CC(C3)C4)C3CC3)cc2n1)C1CCC(F)(F)CC1 [Example 249, N—((S)-(7-((R)-(2-(Bicyclo[1.1.1]pentan-1-yl)acetamido)(cyclopropyl)methyl)imidazo[1,2-b]pyridazin-2-yl)(4,4-difluorocyclohexyl)methyl)-4-methyl-1,2,5-oxadiazole-3-carboxamide]		98 nM
